Experimental findings from patent US20060276520A1 (priority 2002, published 2006) are described below.

Several values for one entry are separate records, joined by “and”; a condition that tells them apart may be missing. Equal entries are not always repeated. Where two headings read alike, the source gives them in different places.

Targets include ROC1/CUL2 (Homo sapiens, UniProt P62877+Q13617); ROC1/CUL1 (Homo sapiens, UniProt P62877+Q13616); MDM2/P53 (Homo sapiens, UniProt Q00987).
Holding throughout (experiment): biochemical
Test [1] concerns the target T1, APC2/APC11 (Homo sapiens, UniProt Q9NYG5+Q9UJX6).
Test [2] concerns the target T1, APC2/APC11. The source holds these as a separate data set.
In the next test the target is T2, ROC2/CUL5 (Homo sapiens, UniProt Q93034+Q9UBF6).
T2 sequence (Q9UBF6 1-113): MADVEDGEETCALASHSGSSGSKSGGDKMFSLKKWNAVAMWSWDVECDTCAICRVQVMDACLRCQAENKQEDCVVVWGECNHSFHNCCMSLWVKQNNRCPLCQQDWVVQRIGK
T2 sequence (Q93034 1-780): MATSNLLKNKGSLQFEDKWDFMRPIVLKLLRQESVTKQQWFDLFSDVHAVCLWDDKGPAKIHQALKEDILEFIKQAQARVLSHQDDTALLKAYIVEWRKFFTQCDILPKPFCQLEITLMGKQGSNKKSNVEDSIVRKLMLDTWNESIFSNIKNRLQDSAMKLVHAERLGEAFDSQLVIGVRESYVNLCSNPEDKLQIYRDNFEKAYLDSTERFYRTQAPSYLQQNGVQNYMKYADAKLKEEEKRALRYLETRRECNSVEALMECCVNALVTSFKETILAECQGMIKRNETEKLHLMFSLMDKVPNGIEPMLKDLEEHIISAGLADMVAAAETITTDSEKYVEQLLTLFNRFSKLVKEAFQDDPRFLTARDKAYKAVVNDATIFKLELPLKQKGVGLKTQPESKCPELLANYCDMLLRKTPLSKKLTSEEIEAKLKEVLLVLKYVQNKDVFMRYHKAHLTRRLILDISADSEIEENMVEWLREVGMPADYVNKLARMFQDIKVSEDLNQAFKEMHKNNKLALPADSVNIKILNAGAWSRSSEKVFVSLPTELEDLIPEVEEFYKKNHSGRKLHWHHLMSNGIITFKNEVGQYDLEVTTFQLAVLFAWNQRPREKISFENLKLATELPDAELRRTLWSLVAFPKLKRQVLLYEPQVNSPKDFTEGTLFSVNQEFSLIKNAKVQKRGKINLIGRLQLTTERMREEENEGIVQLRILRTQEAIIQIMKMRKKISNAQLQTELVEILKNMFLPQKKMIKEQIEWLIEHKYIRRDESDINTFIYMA

Chain of MDM2/P53 (Q00987 whole entry): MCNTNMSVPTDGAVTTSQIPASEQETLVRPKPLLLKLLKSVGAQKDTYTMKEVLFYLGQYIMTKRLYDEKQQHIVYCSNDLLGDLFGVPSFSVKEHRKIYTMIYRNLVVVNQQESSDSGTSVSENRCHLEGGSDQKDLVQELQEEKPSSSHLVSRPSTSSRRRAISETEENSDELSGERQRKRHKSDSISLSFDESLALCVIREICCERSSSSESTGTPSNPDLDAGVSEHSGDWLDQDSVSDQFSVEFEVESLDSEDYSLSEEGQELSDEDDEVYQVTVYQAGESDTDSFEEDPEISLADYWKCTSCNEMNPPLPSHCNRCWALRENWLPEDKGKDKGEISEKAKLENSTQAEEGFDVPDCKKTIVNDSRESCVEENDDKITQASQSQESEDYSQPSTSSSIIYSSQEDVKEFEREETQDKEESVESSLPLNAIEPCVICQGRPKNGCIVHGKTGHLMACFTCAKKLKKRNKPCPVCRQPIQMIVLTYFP
T1 sequence (Q9UJX6 whole entry): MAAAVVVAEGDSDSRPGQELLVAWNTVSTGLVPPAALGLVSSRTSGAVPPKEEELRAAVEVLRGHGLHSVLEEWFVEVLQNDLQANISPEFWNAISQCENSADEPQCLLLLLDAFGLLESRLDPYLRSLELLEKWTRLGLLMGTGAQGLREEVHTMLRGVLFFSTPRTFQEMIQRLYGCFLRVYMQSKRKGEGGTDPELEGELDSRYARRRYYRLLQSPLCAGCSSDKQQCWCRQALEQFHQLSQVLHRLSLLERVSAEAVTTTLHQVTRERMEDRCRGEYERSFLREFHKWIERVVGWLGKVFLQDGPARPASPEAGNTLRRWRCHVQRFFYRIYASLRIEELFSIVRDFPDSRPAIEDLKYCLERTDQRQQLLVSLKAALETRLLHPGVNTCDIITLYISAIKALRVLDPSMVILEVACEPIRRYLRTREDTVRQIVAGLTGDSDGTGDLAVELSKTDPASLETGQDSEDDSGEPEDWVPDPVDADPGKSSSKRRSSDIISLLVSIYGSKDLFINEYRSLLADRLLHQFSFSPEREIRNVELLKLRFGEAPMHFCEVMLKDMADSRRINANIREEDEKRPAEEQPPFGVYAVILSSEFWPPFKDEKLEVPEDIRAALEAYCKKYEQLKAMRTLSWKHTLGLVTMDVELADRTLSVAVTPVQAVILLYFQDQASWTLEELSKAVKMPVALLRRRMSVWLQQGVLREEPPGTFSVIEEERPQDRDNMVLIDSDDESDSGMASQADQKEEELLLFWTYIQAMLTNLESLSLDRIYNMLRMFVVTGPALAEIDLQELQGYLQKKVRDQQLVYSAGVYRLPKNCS
T1 sequence (Q9NYG5 whole entry): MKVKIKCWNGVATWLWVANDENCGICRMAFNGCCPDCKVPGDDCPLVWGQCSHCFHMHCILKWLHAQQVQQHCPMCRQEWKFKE
Chain of ROC1/CUL1 (P62877 whole entry): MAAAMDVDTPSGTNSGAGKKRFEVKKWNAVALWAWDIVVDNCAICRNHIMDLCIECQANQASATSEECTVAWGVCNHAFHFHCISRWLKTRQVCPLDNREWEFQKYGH
Chain of ROC1/CUL1 (Q13616 whole entry): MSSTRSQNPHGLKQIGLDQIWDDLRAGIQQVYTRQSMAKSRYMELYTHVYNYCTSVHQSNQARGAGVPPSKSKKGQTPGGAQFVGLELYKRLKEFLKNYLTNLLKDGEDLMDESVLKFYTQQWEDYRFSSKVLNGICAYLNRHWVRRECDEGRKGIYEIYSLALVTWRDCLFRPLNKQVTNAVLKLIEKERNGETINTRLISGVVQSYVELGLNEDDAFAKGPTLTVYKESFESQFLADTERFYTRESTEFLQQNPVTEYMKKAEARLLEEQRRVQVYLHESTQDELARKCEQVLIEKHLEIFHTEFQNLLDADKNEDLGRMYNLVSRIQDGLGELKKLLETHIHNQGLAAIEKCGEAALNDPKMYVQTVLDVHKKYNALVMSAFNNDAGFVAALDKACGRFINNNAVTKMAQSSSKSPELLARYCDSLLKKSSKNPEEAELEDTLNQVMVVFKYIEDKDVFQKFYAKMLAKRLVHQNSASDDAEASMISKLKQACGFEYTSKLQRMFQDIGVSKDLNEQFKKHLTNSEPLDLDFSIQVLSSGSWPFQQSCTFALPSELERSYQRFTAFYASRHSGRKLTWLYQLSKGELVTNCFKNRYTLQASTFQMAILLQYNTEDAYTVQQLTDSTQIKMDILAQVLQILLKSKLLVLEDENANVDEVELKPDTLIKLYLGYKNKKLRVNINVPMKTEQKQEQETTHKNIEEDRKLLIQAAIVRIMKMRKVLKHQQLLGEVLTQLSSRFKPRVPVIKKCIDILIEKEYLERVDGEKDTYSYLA
Chain of ROC1/CUL2 (P62877 whole entry): as the sequence (P62877 whole entry) above
Chain of ROC1/CUL2 (Q13617 whole entry): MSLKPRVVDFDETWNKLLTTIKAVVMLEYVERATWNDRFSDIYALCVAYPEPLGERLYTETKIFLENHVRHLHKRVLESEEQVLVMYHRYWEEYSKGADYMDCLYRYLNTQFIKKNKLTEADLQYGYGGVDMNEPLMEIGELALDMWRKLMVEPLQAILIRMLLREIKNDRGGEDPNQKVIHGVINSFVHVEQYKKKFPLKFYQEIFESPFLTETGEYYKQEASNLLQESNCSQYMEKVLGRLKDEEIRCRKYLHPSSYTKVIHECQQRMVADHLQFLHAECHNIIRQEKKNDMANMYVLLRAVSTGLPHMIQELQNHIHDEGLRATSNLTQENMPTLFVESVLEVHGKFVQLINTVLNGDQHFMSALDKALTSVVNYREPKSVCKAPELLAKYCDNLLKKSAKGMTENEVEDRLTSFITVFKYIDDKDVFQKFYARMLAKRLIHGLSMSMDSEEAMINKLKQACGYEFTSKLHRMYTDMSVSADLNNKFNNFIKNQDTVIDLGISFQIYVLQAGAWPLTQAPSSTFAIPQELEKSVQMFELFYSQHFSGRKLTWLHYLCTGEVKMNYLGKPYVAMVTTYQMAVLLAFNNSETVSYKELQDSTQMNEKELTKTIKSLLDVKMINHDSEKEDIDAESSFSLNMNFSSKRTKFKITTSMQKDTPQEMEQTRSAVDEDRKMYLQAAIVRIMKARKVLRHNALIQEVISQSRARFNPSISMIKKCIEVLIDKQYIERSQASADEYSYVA

Broadly, the IC50 is the concentration needed to halve the response being measured. A high value points to weaker potency in that assay. As for `COc1ccc(-c2ccc(/C=C3/SC(=S)NC3=O)o2)cc1Cl` [Compound 172, (5E)-5-{[5-(3-chloro-4-methoxyphenyl)-2-furyl]methylene}-2-thioxo-1,3-thiazolidin-4-one], the IC50 against APC2/APC11 [1] and at APC2/APC11 [2] was 2 µM each time.

In the case of `C=CCN1C(=O)/C(=C/c2ccc(-c3cccc(Cl)c3)o2)SC1=S` [Compound 284, (5Z)-3-allyl-5-{[5-(3-chlorophenyl)-2-furyl]methylene}-2-thioxo-1,3-thiazolidin-4-one], the results for the IC50 on ROC2/CUL5, against ROC1/CUL2 and on ROC1/CUL1 were 0.2 µM, 0.8 µM and 0.8 µM, respectively.

As to `COc1ccc(CN2C(=O)/C(=C/c3ccc(-c4ccccc4Cl)o3)SC2=S)cc1` [Compound 274, (5Z)-5-{[5-(2-chlorophenyl)-2-furyl]methylene}-3-(4-methoxybenzyl)-2-thioxo-11,3-thiazolidin-4-one], the IC50 at MDM2/P53 stood at 1.18 µM; against APC2/APC11 [2], 0.11 µM.

As to `O=C(O)CN1C(=O)/C(=C\c2ccc(-c3ccc(Cl)c(Cl)c3)o2)SC1=S` [Compound 82, ((5E)-5-{[5-(3,4-dichlorophenyl)-2-furyl]methylene}-4-oxo-2-thioxo-1,3-thiazolidin-3-yl)acetic acid], the IC50 came to 1.5 µM against MDM2/P53 and 5 µM at APC2/APC11 [2].

For the compound `COc1ccc(N2C(=O)/C(=C\c3ccc(-c4ccc(Br)cc4)o3)SC2=S)cc1` [Compound 96, (5E)-5-{[5-(4-bromophenyl)-2-furyl]methylene}-3-(4-methoxyphenyl)-2-thioxo-1,3-thiazolidin-4-one], the values for the IC50 against MDM2/P53 and at APC2/APC11 [2] were 0.56 µM and 10 µM, respectively.

With `CN1C(=O)/C(=C\c2ccc(-c3cccc(Br)c3)o2)SC1=S` [Compound 50, (5E)-5-{[5-(3-bromophenyl)-2-furyl]methylene]-3-methyl-2-thioxo-1,3-thiazolidin-4-one], the IC50 on MDM2/P53 is 2.69 µM; against APC2/APC11 [2], 3.7 µM.

With `O=C1/C(=C/c2ccc(-c3cccc4ccccc34)o2)SC(=S)N1Cc1ccccc1` [Compound 30, (5Z)-3-benzyl-5-{[5-(1-nephthyl)-2-furyl]methylene}-2-thioxo-1,3-thiazolidin-4-one], the results for the IC50 against MDM2/P53 and on APC2/APC11 [2] were 2.32 µM and 5.49 µM, respectively.

Turning to `C=CCN1C(=O)C(Cc2ccc(-c3ccccc3Cl)o2)SC1=S` (stereo not shown) [Compound 304, 3-allyl-5-{[5-(2-chlorophenyl)-2-furyl]methyl}-2-thioxo-1,3-thiazolidin-4-one], the IC50 against ROC2/CUL5 was 0.8 µM; on ROC1/CUL2 it was 1 µM; at ROC1/CUL1, 1 µM.

Turning to `O=C1/C(=C\c2ccc(-c3cccc(C(F)(F)F)c3)o2)SC(=S)N1Cc1ccco1` [Compound 55, (5E)-3-(2-furylmethyl)-2-thioxo-5-({5-[3-(trifluoromethyl)phenyl]-2-furyl}methylene)-1,3-thiazolidin-4-one], the IC50 against APC2/APC11 [1] was 4 µM and 10 µM.
